{
  "source": "patent US10563171B2",
  "about": "“Method for inducing differentiation of pluripotent stem cells into germ cells” (Kyoto University, priority 2015, dated 2020)",
  "key": {"BTAG 585B1-868 hiPSCs": {"tested_on": "BTAG 585B1-868 hiPSCs", "experiment": "Induction of iMeLCs from hiPSCs having induction capacity into BTAG positive cells (FACS of BTAG(+) cells)", "type": "cell-based, human", "description": "(§1) Initial mesoderm-like cells (iMeLCs) were induced by seeding hiPSCs maintained in StemFit™ in a 12 well plate coated with human plasma fibronectin (Millipore, FC010) at 1.0-2.0×10^5 cells per well in GK15 medium [GMEM containing 15% KSR, 0.1 mM NEAA, 2 mM L-glutamine, 1 mM sodium pyruvate and 0.1 mM 2-mercaptoethanol (Life Technologies)] containing 50 ng/ml activin A, 3 μM CHIR99021 and 10 μM ROCK inhibitor (Y-27632; Wako Pure Chemical Industries). The hiPSCs were induced by seeding in a low-cell-binding V-bottom 96 wellplate (Thermo, 81100574) at 3.0×10^3 cells per well in GK15 added with 1000 U/ml LlF (Millipore, #LIF1005), 200 ng/ml BMP 4,100 ng/ml SCF (R&D Systems, 455-MC), 50 ng/ml EGF (R&D Systems, 236-EG), and 10 μM ROCK inhibitor. For investigation of conditions and induction of iMeLCs or hPGCLC, PD173074 (StemGent, #04-0008) or LDN193189 (StemGent, #04-0074) was respectively added. Other than the above, WNT3A (R&D Systems, 5036-WN) was used instead of CHIR99021, and BMP2 (R&D Systems, 355-BM), BMP7 (R&D Systems, 354-BP), or BMP8A (R&D Systems, 1073-BP) was used instead of BMP4.\n(§2) Floating aggregates containing hPGCLCs were separated by treating with 0.05% Trypsin-EDTA/PBS at 37° C. for 10 min. After washing with PBS containing FBS and 0.1% BSA, the cell suspension was filtered by a cell strainer (BD Biosciences) and centrifuged to remove cell aggregates. The collected cells were suspended in FACS buffer (0.1% BSA in PBS) and analyzed by a flow cytometer (ARIA III; BD Biosciences). For the analysis of hPGCLCs or hiPSCs, the separated cells were stained with APC-conjugated anti-human CD326 (EpCAM), BV421-conjugated anti-human/mouse CD49f, PE-conjugated anti-TRA-1-60, or FITC-conjugated anti-SSEA-4. Furthermore, intracellular staining using Alexa fluor 647-conjugated anti-OCT3/4, Alexa Fluor 647-conjugated anti-NANOG or V450-conjugated anti-SOX2 was performed using BD cytofix/Cytoferm Fixation/Permeabilization kit (BD, 554714) and according to the Manufacturer's instructions."}, "iMeLCs": {"tested_on": "iMeLCs", "experiment": "Induction of BTAG positive cells (hPGCLCs) from iMeLCs in floating aggregates", "type": "cell-based, human", "details": "for role in induction of BTAG positive cells from iMeLCs: combination of BMP4, LIF, SCF and EGF changed, FIG. 11A-D", "description": "as §1, §2"}},
  "data": [
    {"compound": "bFGF: basic fibroblast growth factor", "values": [
      {"measurement": "effect of signaling on iMeLCs induction", "setting": "BTAG 585B1-868 hiPSCs; added during induction of iMeLC, FIG. 10D, 10E", "value": "acts negatively"}
    ]},
    {"compound": "SCF: stem cell factor", "values": [
      {"measurement": "role in induction of BTAG positive cells from iMeLCs", "setting": "iMeLCs", "value": "maintaining rather than inducing"}
    ]},
    {"compound": "EGF: epithelial cell growth factor", "values": [
      {"measurement": "role in induction of BTAG positive cells from iMeLCs", "setting": "iMeLCs", "value": "maintaining rather than inducing"}
    ]},
    {"compound": "c1ccc2c(-c3cnn4cc(-c5ccc(N6CCNCC6)cc5)cnc34)ccnc2c1", "note": "[LDN193189, reference compound]", "values": [
      {"measurement": "effect of BMP4 on BTAG positive cell induction in presence of ALK2/3 inhibitor", "setting": "iMeLCs; FIG. 11B", "value": "blocked"}
    ]},
    {"compound": "LIF: leukemia inhibitory factor", "values": [
      {"measurement": "role in induction of BTAG positive cells from iMeLCs", "setting": "iMeLCs", "value": "maintaining rather than inducing"}
    ]},
    {"compound": "Cc1c[nH]c(-c2cnc(NCCNc3ccc(C#N)cn3)nc2-c2ccc(Cl)cc2Cl)n1", "note": "[CHIR, 6-[2-[4-(2,4-Dichlorophenyl)-5-(4-methyl-1H-imidazol-2-yl)pyrimidin-2-ylamino]ethylamino]pyridine-3-carbonitrile, reference compound]", "values": [
      {"measurement": "concentration essential for the induction of iMeLCs having induction capacity into BTAG positive cells", "setting": "BTAG 585B1-868 hiPSCs; concentration changed during induction of iMeLC from hiPSCs, FIG. 10C", "value": "3 to 5", "unit": "µM"}
    ]},
    {"compound": "CCN(CC)CCCCNc1ncc2cc(-c3cc(OC)cc(OC)c3)c(NC(=O)NC(C)(C)C)nc2n1", "note": "[PD173074, reference compound]", "values": [
      {"measurement": "number of BTAG-positive cells per cell aggregate", "setting": "BTAG 585B1-868 hiPSCs; FGFR signaling inhibited during induction of iMeLCs, FIG. 10G, 10H", "value": "increased"}
    ]}
  ]
}
